{
  "source": "patent US20250314661A1",
  "about": "“CHEMIGENETIC TOOLS AND METHODS OF CONTROLLING AND ASSESSING PROTEIN PHASE SEPARATION” (THE REGENTS OF THE UNIVERSITY OF CALIFORNIA, priority 2022, published 2025)",
  "molecules": {"B1": {"name": "FLAG-tagged CEL (109 amino acid CRBN C-terminal domain) (other)", "chain": "SLCCKQCQETEITTKNEIFSLSLCGPMAAYVNPHGYVHETLTVYKACNLNLIGRPSTEHSWFPGYAWTVAQCKICASHIGWKFTATKKDMSPQKFWGLTRSALLPTIPD", "notes": "Expressed in HEK293 cells; also called CRBN CTD; not shown: FLAG tag"}},
  "key": {"other cells": {"tested_on": "other cells", "conditions": "cells other than multiple myeloma; Siu et al. (2017); cited from earlier work"}, "Ctgf": {"tested_on": "Ctgf", "experiment": "RT-qPCR of YAP target gene Ctgf mRNA", "assay_type": "cell-based", "conditions": "cells transfected with CEL-EGFP-YAP without the ZIF construct", "procedure": "FIG. 6A-D show representative images illustrating that the SparkDrop-Y AP condensates produce nascent RNAs and upregulate a direct target gene of Y AP. […] The cells were short labeled with EU for 1 hour. Arrows point to the induced YAP condensates and the colocalized nascent RNA droplets. Arrowhead points to nucleoli. The nucleus marked by asterisk was not transfected with SparkDrop-YAP. […] Data are shown as meant SD (n=3).\nLastly, whether the SparkDrop-Y AP condensates upregulate mRNA levels of a YAP target gene Ctgf were determined using RT-qPCR. […] As a control, cells were incubated with DMSO. […] Next, a positive control was conducted by incubating cells with sorbitol, which is known to induce osmotic stress and drive YAP condensate formation. […] Lastly, cells were transfected with CEL-EGFP-Y AP (without the ZIF construct), and incubated with lenalidomide or DMSO."}, "ERK": {"tested_on": "ERK", "experiment": "ERK activity reporter ERK-KTR translocation after lenalidomide-induced SOScat translocation", "source_text": "The relocated SOScat then activates Ras, which leads to ERK activation via the MAPK pathway.\nThe presence of SOS in the PM can activate Ras and promote ERK activity via the MAPK pathway (FIG. 2C, left). For targeting SOS to the PM, ZIF was first fused to the CAAX motif tagged with a red fluorescent protein (RFP). Next, CEL was fused to the catalytic domain of SOS (referred to as SOScat), which was tagged with a near infrared fluorescent protein IFP2 that helps visualizing SOScat translocation (FIG. 2C, left). […] To determine whether SOScat translocation activates ERK, a GFP translocation-based ERK activity reporter called ERK-KTR was used, which translocates from the nucleus to the cytoplasm upon activation of endogenous ERK (Regot et al. (2014) Cell 157:1724-1734)."}, "[1]": {"molecular_target": "MYCN fused to FRB and mEGFP (UniProt P04198)", "sequence (P04198 other isoform, or with tags, fused parts or gaps)": "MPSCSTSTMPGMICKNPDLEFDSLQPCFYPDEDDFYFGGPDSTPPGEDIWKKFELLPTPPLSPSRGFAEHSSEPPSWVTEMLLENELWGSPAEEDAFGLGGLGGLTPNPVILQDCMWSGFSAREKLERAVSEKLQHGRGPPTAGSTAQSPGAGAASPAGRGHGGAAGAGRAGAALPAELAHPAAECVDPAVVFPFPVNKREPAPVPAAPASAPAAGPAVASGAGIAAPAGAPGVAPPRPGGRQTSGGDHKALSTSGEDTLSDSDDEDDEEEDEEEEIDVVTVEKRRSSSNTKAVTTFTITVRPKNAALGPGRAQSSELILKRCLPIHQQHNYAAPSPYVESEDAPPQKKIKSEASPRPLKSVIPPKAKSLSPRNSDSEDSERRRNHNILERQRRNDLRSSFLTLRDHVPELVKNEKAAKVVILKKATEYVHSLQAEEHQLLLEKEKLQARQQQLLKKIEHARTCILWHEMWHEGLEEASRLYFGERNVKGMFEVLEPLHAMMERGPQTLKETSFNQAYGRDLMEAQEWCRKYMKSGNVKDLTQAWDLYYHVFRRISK", "experiment": "cell-based or functional assay"}, "DDB1": {"molecular_target": "T1, DDB1 (UniProt Q16531 1-1140)", "T1 construct": "Tested both as endogenous protein of HEK293 cells and with exogenous over-expression; also called endogenous DDB1; exogenous DDB1", "T1 sequence (Q16531 whole entry)": "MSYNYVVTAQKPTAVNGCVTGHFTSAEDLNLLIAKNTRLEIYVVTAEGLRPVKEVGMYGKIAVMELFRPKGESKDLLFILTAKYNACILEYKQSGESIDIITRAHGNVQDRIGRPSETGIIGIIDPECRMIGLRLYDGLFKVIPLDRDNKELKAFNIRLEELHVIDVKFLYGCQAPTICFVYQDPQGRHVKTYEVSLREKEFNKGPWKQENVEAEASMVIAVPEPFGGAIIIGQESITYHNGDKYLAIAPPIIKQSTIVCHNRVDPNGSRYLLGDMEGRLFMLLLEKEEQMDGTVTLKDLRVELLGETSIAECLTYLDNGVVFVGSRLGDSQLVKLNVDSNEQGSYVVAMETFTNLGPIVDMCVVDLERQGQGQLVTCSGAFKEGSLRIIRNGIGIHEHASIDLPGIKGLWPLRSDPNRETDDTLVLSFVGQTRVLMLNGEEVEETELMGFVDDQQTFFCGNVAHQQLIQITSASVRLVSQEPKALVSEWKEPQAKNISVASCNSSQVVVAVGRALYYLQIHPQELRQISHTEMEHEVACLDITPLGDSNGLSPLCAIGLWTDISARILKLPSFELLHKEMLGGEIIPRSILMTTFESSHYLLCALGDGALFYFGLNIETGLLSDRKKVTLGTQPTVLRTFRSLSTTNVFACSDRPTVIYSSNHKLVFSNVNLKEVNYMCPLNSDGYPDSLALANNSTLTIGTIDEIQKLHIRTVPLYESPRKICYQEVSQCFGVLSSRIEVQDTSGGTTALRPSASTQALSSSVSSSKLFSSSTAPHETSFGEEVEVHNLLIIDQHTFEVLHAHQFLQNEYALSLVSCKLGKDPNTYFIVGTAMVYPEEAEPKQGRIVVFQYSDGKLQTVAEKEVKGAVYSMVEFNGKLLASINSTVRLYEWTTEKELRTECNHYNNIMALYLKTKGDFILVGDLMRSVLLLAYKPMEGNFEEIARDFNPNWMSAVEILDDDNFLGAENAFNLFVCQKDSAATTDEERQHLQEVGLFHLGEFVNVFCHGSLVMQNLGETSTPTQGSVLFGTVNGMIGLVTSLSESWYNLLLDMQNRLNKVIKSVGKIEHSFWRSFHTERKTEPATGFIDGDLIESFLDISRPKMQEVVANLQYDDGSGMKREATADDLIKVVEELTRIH", "experiment": "FLAG pull-down and Western blot against DDB1, HEK293 cells, with or without exogenous DDB1"}},
  "data": [
    {"molecule": "O=C1CCC(N2C(=O)c3ccccc3C2=O)C(=O)N1", "note": "(stereo not shown) [thalidomide]", "values": [
      {"measurement": "toxicity in other cells", "setting": "other cells", "value": "no or little toxicity"}
    ]},
    {"molecule": "Nc1cccc2c1CN(C1CCC(=O)NC1=O)C2=O", "note": "(stereo not shown) [lenalidomide]", "values": [
      {"measurement": "Ctgf mRNA, control without ZIF construct", "setting": "Ctgf", "value": "not upregulated"},
      {"measurement": "toxicity in other cells", "setting": "other cells", "value": "no or little toxicity"},
      {"measurement": "ERK-KTR translocation", "setting": "ERK; cells expressing CEL-IFP2-SOScat and ZIF-RFP-CAAX", "value": "translocated from the nucleus to the cytoplasm"},
      {"measurement": "ERK-KTR translocation, control without ZIF", "setting": "ERK; cells expressing CEL-IFP2-SOScat without ZIF", "value": "did not induce ERK-KTR translocation"}
    ]},
    {"molecule": "SUMO-mCherry-FKBP (from UniProt P62942 2-108)", "values": [
      {"measurement": "dissolution of MYCN condensates after addition of rapamycin", "setting": "[1]", "value": 10, "unit": "min"}
    ]},
    {"molecule": "B1", "values": [
      {"measurement": "binding result", "setting": "DDB1", "value": "no binding"}
    ]}
  ]
}
